Broadly, the IC50 is the concentration that gives 50% inhibition.

Experiment [1] addresses Chymotrypsinogen A (Bos taurus) (UniProt P00766). The experiment can be described thus: Tested for inhibition of Chymotrypsinogen from bovine.
Experiment [2] shares this target. The description is as above. This is another data set of the same source.

The molecule `CC(C)OC(=O)[C@H](O)[C@H](CC1CCCCC1)NC(=O)[C@H](Cc1c[nH]cn1)NC(=O)[C@@H](CC(=O)N1CCOCC1)Cc1cccc2ccccc12` [4-Cyclohexyl-2-hydroxy-3-[3-(1H-imidazol-4-yl)-2-(4-morpholin-4-yl-2-naphthalen-1-ylmethyl-4-oxo-butyrylamino)-propionylamino]-butyric acid isopropyl ester] gave a half-inhibitory concentration (IC50) in experiment [1] greater than 100 µM.
`CC(C)CC(=O)N[C@H](C(=O)N[C@H](C(=O)N[C@@H](CC(C)C)[C@@H](O)CC(=O)N[C@@H](C)C(=O)N[C@@H](CC(C)C)[C@@H](O)CC(=O)O)C(C)C)C(C)C` [PEPSTATIN] yielded an IC50 in experiment [2] greater than 100 µM.

For the origin of these results see BindingDB's records for doi:10.1021/jm00172a005 (Kissei Pharmaceutical, 1990).
